Assay results taken from patent publication US20090304692A1, “TRIAZINE COMPOUNDS AS PI3 KINASE AND MTOR INHIBITORS” (Wyeth, priority 2008, published 2009).
pIC50: −log10 of the molar value. Values joined by “and” are separate entries in the source; they are usually repeats but may differ in a detail not shown here. Equal values may be shown once. Read-outs that look alike come from different tables or passages of the source.

Assays:
[1] = biological target: PI3K-α (Homo sapiens, UniProt P42336); assay: PI3K-alpha fluorescence polarization assay
[2] = biological target: PI3K-γ (Homo sapiens, UniProt P48736); assay: PI3K-gamma fluorescence polarization assay
[3] = biological target: Human mTOR (FLAG-TOR) (Homo sapiens, UniProt P42345); assay: mTOR kinase assay (DELFIA format, purified enzyme); assay type: biochemical; settings: read-out: IC50 mTOR
Sequence of Human mTOR (FLAG-TOR) (P42345 1360-2549 limits assumed): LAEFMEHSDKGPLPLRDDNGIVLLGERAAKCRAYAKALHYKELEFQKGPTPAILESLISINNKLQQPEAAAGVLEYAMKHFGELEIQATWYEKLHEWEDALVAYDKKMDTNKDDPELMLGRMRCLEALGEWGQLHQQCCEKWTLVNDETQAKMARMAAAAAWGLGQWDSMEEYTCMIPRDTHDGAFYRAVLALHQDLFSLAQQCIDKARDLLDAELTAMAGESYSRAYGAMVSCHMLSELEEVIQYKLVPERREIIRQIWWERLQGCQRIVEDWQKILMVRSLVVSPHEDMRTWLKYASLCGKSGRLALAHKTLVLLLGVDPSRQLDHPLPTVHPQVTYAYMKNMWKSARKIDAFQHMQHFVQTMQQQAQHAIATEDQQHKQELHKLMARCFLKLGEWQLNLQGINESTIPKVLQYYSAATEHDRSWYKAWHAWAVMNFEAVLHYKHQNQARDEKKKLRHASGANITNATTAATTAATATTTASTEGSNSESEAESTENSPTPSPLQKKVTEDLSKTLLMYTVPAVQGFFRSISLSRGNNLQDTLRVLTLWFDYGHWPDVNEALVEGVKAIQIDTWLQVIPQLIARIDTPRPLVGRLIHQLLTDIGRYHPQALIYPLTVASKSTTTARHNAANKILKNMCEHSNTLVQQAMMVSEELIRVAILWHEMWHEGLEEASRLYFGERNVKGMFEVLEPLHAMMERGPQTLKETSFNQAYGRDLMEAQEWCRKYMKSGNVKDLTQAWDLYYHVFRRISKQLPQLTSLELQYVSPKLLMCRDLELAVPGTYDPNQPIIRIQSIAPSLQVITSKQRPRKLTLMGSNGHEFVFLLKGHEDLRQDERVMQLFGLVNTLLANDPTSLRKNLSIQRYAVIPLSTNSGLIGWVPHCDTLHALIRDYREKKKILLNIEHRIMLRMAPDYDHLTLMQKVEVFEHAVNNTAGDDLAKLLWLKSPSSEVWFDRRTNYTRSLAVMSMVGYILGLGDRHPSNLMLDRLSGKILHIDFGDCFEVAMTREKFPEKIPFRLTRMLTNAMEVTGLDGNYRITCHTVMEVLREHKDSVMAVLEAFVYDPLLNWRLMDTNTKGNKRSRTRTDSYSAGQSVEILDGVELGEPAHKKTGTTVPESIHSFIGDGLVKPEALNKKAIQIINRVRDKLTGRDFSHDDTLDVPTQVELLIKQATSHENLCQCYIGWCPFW

Sequence of PI3K-α (P42336 whole entry, species assumed): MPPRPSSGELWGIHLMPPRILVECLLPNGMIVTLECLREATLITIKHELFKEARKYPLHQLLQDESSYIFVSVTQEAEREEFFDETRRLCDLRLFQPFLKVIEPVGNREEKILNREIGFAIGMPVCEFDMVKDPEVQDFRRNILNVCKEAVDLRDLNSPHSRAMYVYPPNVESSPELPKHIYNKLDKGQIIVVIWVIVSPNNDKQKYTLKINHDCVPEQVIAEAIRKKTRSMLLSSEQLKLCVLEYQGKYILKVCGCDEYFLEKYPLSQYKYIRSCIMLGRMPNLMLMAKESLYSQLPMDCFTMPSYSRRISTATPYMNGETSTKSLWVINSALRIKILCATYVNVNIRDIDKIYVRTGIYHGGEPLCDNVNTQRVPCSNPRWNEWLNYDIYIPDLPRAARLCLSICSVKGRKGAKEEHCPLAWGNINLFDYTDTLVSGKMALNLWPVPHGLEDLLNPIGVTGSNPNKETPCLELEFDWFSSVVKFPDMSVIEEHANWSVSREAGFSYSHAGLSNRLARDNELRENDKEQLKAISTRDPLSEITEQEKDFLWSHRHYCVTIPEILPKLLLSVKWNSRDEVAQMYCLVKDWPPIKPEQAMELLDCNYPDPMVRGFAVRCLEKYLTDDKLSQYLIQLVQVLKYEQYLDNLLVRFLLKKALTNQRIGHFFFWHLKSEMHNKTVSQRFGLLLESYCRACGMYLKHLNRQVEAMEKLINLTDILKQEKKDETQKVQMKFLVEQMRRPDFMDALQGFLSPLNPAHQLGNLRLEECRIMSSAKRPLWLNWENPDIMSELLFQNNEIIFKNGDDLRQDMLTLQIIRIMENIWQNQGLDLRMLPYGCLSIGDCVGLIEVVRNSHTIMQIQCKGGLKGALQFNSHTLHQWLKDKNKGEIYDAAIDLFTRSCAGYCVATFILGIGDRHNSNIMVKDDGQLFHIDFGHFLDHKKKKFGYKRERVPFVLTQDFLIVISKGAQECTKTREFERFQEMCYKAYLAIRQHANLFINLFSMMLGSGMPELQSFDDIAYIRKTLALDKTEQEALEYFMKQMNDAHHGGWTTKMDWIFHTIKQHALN
Sequence of PI3K-α (P27986 whole entry partner, species assumed): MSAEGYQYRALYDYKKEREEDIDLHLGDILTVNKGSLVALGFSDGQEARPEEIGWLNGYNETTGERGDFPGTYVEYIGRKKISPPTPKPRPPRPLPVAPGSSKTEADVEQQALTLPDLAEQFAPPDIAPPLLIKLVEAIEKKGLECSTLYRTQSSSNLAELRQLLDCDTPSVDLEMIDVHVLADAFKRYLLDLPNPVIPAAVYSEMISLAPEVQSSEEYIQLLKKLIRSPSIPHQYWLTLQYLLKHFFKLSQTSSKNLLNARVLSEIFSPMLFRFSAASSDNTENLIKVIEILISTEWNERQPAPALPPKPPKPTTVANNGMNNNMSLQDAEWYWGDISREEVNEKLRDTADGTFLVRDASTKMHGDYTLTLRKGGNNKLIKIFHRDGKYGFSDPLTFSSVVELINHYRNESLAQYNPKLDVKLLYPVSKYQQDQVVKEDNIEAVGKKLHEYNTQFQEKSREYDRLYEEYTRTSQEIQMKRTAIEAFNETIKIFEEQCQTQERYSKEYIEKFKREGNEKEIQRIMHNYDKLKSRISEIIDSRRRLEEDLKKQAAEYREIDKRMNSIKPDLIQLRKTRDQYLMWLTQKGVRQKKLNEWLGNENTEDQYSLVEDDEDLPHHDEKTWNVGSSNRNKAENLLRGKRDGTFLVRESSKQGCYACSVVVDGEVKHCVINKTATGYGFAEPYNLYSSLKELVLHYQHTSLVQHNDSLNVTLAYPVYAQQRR
Sequence of PI3K-γ (P48736 whole entry, species assumed): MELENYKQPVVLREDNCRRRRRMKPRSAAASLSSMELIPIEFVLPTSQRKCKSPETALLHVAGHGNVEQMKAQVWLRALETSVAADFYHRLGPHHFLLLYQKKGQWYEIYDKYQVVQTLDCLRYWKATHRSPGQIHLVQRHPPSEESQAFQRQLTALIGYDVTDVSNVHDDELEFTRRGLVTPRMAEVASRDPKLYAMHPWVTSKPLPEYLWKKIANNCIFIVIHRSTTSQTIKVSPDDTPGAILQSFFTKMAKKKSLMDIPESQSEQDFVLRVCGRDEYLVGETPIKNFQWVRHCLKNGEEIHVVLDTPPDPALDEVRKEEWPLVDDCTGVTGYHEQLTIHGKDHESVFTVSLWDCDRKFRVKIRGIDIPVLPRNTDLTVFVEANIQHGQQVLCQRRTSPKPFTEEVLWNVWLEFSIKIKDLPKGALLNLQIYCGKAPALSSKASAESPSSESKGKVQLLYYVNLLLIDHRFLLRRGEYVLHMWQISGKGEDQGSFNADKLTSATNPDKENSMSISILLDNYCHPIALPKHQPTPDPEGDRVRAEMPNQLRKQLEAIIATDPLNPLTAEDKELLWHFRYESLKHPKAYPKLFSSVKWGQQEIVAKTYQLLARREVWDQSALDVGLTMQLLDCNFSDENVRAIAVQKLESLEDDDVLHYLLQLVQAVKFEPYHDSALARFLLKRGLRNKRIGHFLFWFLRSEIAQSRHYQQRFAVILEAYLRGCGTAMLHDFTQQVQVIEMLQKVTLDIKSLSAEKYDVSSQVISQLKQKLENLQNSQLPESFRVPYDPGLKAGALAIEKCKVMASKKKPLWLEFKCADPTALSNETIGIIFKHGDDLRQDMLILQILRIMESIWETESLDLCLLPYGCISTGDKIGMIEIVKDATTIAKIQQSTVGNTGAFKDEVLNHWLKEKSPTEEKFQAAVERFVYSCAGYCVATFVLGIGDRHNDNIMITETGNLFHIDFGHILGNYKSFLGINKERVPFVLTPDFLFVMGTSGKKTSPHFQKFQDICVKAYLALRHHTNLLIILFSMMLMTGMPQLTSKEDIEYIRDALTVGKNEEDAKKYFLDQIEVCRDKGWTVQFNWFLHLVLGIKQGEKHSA

| Compound | pIC50 ([1]; read-out: IC50 PI3Kα) | pIC50 ([2]; read-out: IC50 PI3Kγ) | pIC50 [3] | other results |
| --- | --- | --- | --- | --- |
| 1-(3-{[4-(dimethylamino)piperidin-1-yl]carbonyl}phenyl)-3-{4-[4-(4-methylphenyl)-6-morpholin-4-yl-1,3,5-triazin-2-yl]phenyl}urea [Example 579] | 6.34 | 6.18 | 6.92 | – |
| 1-(4-(4-(3-oxa-8-azabicyclo[3.2.1]octan-8-yl)-6-(piperidin-4-ylamino)-1,3,5-triazin-2-yl)phenyl)-3-ethylurea [Example 363] | 5.96 | 5.15 | 9.11 | – |
| Nc1ccc(-c2nc(N3CCOCC3)nc(N3C4CCC3COC4)n2)cc1 [Example 33, 4-[4-morpholin-4-yl-6-(3-oxa-8-azabicyclo[3.2.1]oct-8-yl)-1,3,5-triazin-2-yl]aniline] | 5.59 | – | 7.04 | pIC50 [2]: < 5.00 |
| CC(C)NC(=O)Nc1ccc(-c2nc(N3CCOCC3)nc(N3C4CCC3COC4)n2)cc1 [Example 44, 1-isopropyl-3-{4-[4-morpholin-4-yl-6-(3-oxa-8-azabicyclo[3.2.1]oct-8-yl)-1,3,5-triazin-2-yl]phenyl}urea] | 5.80 | 5.02 | 7.87 | – |
| O=C(NCCO)Nc1ccc(-c2nc(N3CCOCC3)nc(N3C4CCC3COC4)n2)cc1 [Example 45, 1-(2-hydroxyethyl)-3-{4-[4-morpholin-4-yl-6-(3-oxa-8-azabicyclo[3.2.1]oct-8-yl)-1,3,5-triazin-2-yl]phenyl}urea] | 6.30 | 5.68 | 8.44 | – |
| CN(C)CCNC(=O)Nc1ccc(-c2nc(N3CCOCC3)nc(N3CCC4(CC3)OCCO4)n2)cc1 [Example 46, 1-[2-(dimethylamino)ethyl]-3-{4-[4-(1,4-dioxa-8-azaspiro[4.5]dec-8-yl)-6-morpholin-4-yl-1,3,5-triazin-2-yl]phenyl}urea] | – | – | 7.62 and 7.70 | pIC50 ([1]; read-out: IC50 PI3Kα, listed as 136): 6.68; pIC50 ([1]; read-out: IC50 PI3Kα, listed as 711): 6.68; pIC50 ([2]; read-out: IC50 PI3Kγ, listed as 136): 5.31; pIC50 ([2]; read-out: IC50 PI3Kγ, listed as 711): 5.31 |
| CN1CCC(NC(=O)Nc2ccc(-c3nc(N4CCOCC4)nc(N4CCOCC4)n3)cc2)CC1 [Example 98, 1-[4-(4,6-dimorpholin-4-yl-1,3,5-triazin-2-yl)phenyl]-3-(1-methylpiperidin-4-yl)urea] | 5.87 | 5.05 | 5.68 | – |
| C[C@H]1COCCN1c1nc(-c2ccc(NC(=O)NC3CCN(C)CC3)cc2)nc(N2CCOCC2)n1 [Example 99, 1-(4-{4-[(3S)-3-methylmorpholin-4-yl]-6-morpholin-4-yl-1,3,5-triazin-2-yl}phenyl)-3-(1-methylpiperidin-4-yl)urea] | 5.82 | 5.12 | 6.34 | – |
| Nc1ccc(-c2nc(N3CCOCC3)nc(N3CCC4(CC3)OCCO4)n2)cc1 [Example 129, 4-[4-(1,4-dioxa-8-azaspiro[4.5]dec-8-yl)-6-morpholin-4-yl-1,3,5-triazin-2-yl]aniline] | 5.14 | – | 5.63 | pIC50 [2]: < 5.00 |
| CN1CCN(c2ccc(NC(=O)Nc3ccc(-c4nc(N5C[C@@H]6C[C@H]5CO6)nc(N5C[C@@H]6C[C@H]5CO6)n4)cc3)cc2)CC1 [Example 312, 1-{4-[4,6-di-(1S,4S)-2-oxa-5-azabicyclo[2.2.1]hept-5-yl-1,3,5-triazin-2-yl]phenyl}-3-[4-(4-methylpiperazin-1-yl)phenyl]urea] | 5.46 | 5.00 | – | – |
| C[C@@H]1COCCN1c1nc(-c2ccc(NC(=O)Nc3ccc(N4CCN(C)CC4)nc3)cc2)nc(C2CCOCC2)n1 [Example 433, (R)-1-(4-(4-(3-methylmorpholino)-6-(tetrahydro-2H-pyran-4-yl)-1,3,5-triazin-2-yl)phenyl)-3-(6-(4-methylpiperazin-1-yl)pyridin-3-yl)urea] | 6.66 | 5.82 | – | – |
| CNC(=O)Nc1ccc(-c2nc(-c3ccc(NC(=O)Nc4ccc(C(N)=O)cc4)cc3)nc(N3CCOCC3)n2)cc1 [Example 462, 4-({[4-(4-{4-[(methylcarbamoyl)amino]phenyl}-6-morpholin-4-yl-1,3,5-triazin-2-yl)phenyl]carbamoyl}amino) benzamide] | – | – | > 9.00 | – |
| CN(C)[C@H]1CCN(C(=O)c2ccc(NC(=O)Nc3ccc(-c4nc(N5CCOCC5)nc(N5C6CCC5COC6)n4)cc3)cc2)C1 [Example 516, 1-(4-{[(3S)-3-(dimethylamino)pyrrolidin-1-yl]carbonyl}phenyl)-3-{4-[4-morpholin-4-yl-6-(3-oxa-8-azabicyclo[3.2.1]oct-8-yl)-1,3,5-triazin-2-yl]phenyl}urea] | 8.68 | 7.77 | – | pIC50 ([1]; read-out: IC50 PI3Kα, listed as 824): 8.70; pIC50 ([1]; read-out: IC50 PI3Kα, listed as 827): 8.67 |
| C[C@H]1COCCN1c1nc(-c2ccc(NC(=O)Nc3ccc(C(=O)N4CCNCC4)cc3)cc2)nc(N2C3CCC2COC3)n1 [Example 838, 1-(4-{4-[(3S)-3-methylmorpholin-4-yl]-6-(3-oxa-8-azabicyclo[3.2.1]oct-8-yl)-1,3,5-triazin-2-yl}phenyl)-3-[4-(piperazin-1-ylcarbonyl)phenyl]urea] | 8.40 | 7.16 | – | – |

Continued, in another order:

| pIC50 ([1]; read-out: IC50 PI3Kα) | pIC50 ([2]; read-out: IC50 PI3Kγ) | pIC50 [3] | Compound | other results |
| --- | --- | --- | --- | --- |
| – | – | < 5.40 | COc1ccc(NC(=O)Nc2ccc(-c3nc(N4CCOCC4)nc(N4CCOCC4)n3)cc2)c(OC)c1 [Example 7, 1-(2,4-dimethoxyphenyl)-3-[4-(4,6-dimorpholin-4-yl-1,3,5-triazin-2-yl)phenyl]-urea] | pIC50 [1]: < 5.00 |
| 6.61 | 6.09 | 7.96 | CCNC(=O)Nc1ccc(-c2nc(N3CCOCC3)nc(N3CCOCC3)n2)cc1 [Example 12, 1-[4-(4,6-dimorpholin-4-yl-1,3,5-triazin-2-yl)phenyl]-3-ethylurea] | – |
| – | – | 7.92 | Cc1ccc(NC(=O)Nc2ccc(-c3nc(NC4CN(C(=O)OC(C)(C)C)C4)nc(N4CCOCC4)n3)cc2)cc1 [Example 16, tert-butyl 3-{[4-(4-{[(4-methylphenyl)carbamoyl]amino}phenyl)-6-morpholin-4-yl-1,3,5-triazin-2-yl]amino}azetidine-1-carboxylate] | pIC50 [1]: < 5.00 |
| 6.69 | 5.80 | 7.30 | O=C(Nc1ccc(-c2nc(N3CCOCC3)nc(N3CCOCC3)n2)cc1)Nc1ccc(C(F)(F)F)cn1 [Example 55, 1-[4-(4,6-dimorpholin-4-yl-1,3,5-triazin-2-yl)phenyl]-3-[5-(trifluoromethyl)pyridin-2-yl]urea] | – |
| – | – | 7.82 and 8.00 | O=C(Nc1ccc(-c2nc(N3CCOCC3)nc(N3CCOCC3)n2)cc1)Nc1ccc(C(O)(C(F)(F)F)C(F)(F)F)cc1 [Example 56, 1-[4-(4,6-dimorpholin-4-yl-1,3,5-triazin-2-yl)phenyl]-3-{4-[2,2,2-trifluoro-1-hydroxy-1-(trifluoromethyl)ethyl]phenyl}urea] | – |
| 5.84 | 5.92 | 5.82 | CNCCNC(=O)Nc1ccc(-c2nc(OC3CCOCC3)nc(N3CCOCC3)n2)cc1 [Example 64, 1-[2-(methylamino)ethyl]-3-{4-[4-morpholin-4-yl-6-(tetrahydro-2H-pyran-4-yloxy)-1,3,5-triazin-2-yl]phenyl}urea] | – |
| 8.00 | 6.31 | 7.64 | COC(=O)c1ccc(NC(=O)Nc2ccc(-c3nc(C)nc(N4CCOCC4)n3)cc2)cc1 [Example 162, methyl 4-({[4-(4-methyl-6-morpholin-4-yl-1,3,5-triazin-2-yl)phenyl]carbamoyl}amino)benzoate] | – |
| 6.42 | 5.86 | – | Cc1nc(-c2ccc(NC(=O)Nc3ccc(C(=O)NC4CCN(C)CC4)cc3)cc2)nc(N2CCOCC2)n1 [Example 164, 4-({[4-(4-methyl-6-morpholin-4-yl-1,3,5-triazin-2-yl)phenyl]carbamoyl}amino)-N-(1-methylpiperidin-4-yl)benzamide] | – |
| 8.22 | 7.51 | – | O=C(Nc1ccc(C(=O)N2CCC(N3CCCC3)CC2)cc1)Nc1ccc(-c2nc(N3CCOCC3)nc(N3C[C@@H]4C[C@H]3CO4)n2)cc1 [Example 210, 1-(4-{4-morpholin-4-yl-6-[(1S,4S)-2-oxa-5-azabicyclo[2.2.1]hept-5-yl]-1,3,5-triazin-2-yl}phenyl)-3-{4-[(4-pyrrolidin-1-ylpiperidin-1-yl)carbonyl]phenyl}urea] | – |
| 9.00 | – | 9.20 | CN(C)[C@@H]1CCN(C(=O)c2ccc(NC(=O)Nc3ccc(-c4nc(N5CCOCC5)nc(N5CCOCC5)n4)cc3)cc2)C1 [Example 484, 1-(4-{[(3R)-3-(dimethylamino)pyrrolidin-1-yl]carbonyl}phenyl)-3-[4-(4,6-dimorpholin-4-yl-1,3,5-triazin-2-yl)phenyl]urea] | – |
| 8.85 | – | 8.90 | CN(C)[C@H]1CCN(C(=O)c2ccc(NC(=O)Nc3ccc(-c4nc(N5CCOCC5)nc(N5CCOCC5)n4)cc3)cc2)C1 [Example 485, 1-(4-{[(3S)-3-(dimethylamino)pyrrolidin-1-yl]carbonyl}phenyl)-3-[4-(4,6-dimorpholin-4-yl-1,3,5-triazin-2-yl)phenyl]urea] | – |
| – | – | 9.37 | CC(C)N1CCN(C(=O)c2ccc(NC(=O)Nc3ccc(-c4nc(C5CCOCC5)nc(N5CCOCC5)n4)cc3)cc2)CC1 [Example 523, 1-(4-{[4-(1-methylethyl)piperazin-1-yl]carbonyl}phenyl)-3-{4-[4-morpholin-4-yl-6-(tetrahydro-2H-pyran-4-yl)-1,3,5-triazin-2-yl]phenyl}urea] | – |
| 7.20 | 6.98 | – | Cc1ccc(-c2nc(-c3ccc(NC(=O)Nc4cccc(C(=O)O)c4)cc3)nc(N3CCOCC3)n2)cc1 [Example 577, 3-[({4-[4-(4-methylphenyl)-6-morpholin-4-yl-1,3,5-triazin-2-yl]phenyl}carbamoyl)amino]benzoic acid] | – |
| 6.87 | 6.43 | – | O=C(Nc1ccncc1)Nc1ccc(-c2nc(NS(=O)(=O)c3ccccc3)nc(N3CCOCC3)n2)cc1 [Example 781, N-(4-morpholin-4-yl-6-{4-[(pyridin-4-ylcarbamoyl)amino]phenyl}-1,3,5-triazin-2-yl)benzenesulfonamide] | – |
